Assay results published in patent US20250382296A1, “NITROGEN-CONTAINING FUSED THREE RING PRMT5 INHIBITOR, AND PREPARATION METHOD THEREFOR AND PHARMACEUTICAL USE THEREOF” (Abbisko Therapeutics Co., Ltd., priority 2022, published 2025).

Legend:
[1] = test system: HCT 116 MTAP-knockout cells; assay: Inhibition of proliferation of HCT116 MTAP-knockout cells (CellTiter-Glo, 6 days); format: cell-based, human; details: for IC50: Homo sapiens, HCT-116, 144 h, proliferation inhibition, HCT116 MTAP-knockout, 6 days, CellTiter-Glo; for Selectivity: IC50 HCT116 wild-type cells / IC50 HCT116 MTAP-knockout cells
Protocol: (§1) 1. HCT 116 MTAP-knockout cells and HCT 116 wild-type MTAP cells were plated in 96-well flat-bottom plates and cultured overnight at 37° C. and […] in McCoy's 5A medium containing 10% fetal bovine serum+1% penicillin-streptomycin.
(§2) 2. The next day, compounds were each dissolved in DMSO, diluted successively with DMSO and medium and then transferred to cell plates; the final concentration of each compound was 10 μM, 4-fold dilution was performed to obtain 9 concentration points, and a DMSO control was provided.
(§3) 3. Cells not treated with compound were subjected to CellTiter-Glo Luminescent Cell Viability Assay (Promega) to detect the cell viability, and reference was made to the kit instructions for the operation; the plates were then placed on an EnVision Multilabel Reader to detect luminescence signals.
(§4) 4. Meanwhile, the cell plates containing cells treated with compounds were cultured continuously at 37° C. and […] CO2 for 6 days.
(§5) 5. Then, the cell viability was also detected by CellTiter-Glo.
(§6) 6. Finally, dose response curves were plotted using the four parameter dose response curve module of GraphPad Prism v 9.2.0 software and proliferation inhibition IC50 (unit: nM) was calculated.

[2] = test system: HCT 116 wild-type MTAP cells; assay: Inhibition of proliferation of HCT116 wild-type MTAP cells (CellTiter-Glo, 6 days); format: cell-based; details: Homo sapiens, HCT-116, 144 h
Protocol: as §1, §2, §3, §4, §5, §6

Q: How did the IC50 [1] turn out when `Cc1cc2nc(N)c3cncn3c2cc1C(=O)N1CC[C@@H](C)C[C@@H]1c1ccc2scnc2c1` [Example 226, (4-amino-7-methylimidazo[1,5-a]quinoxalin-8-yl)((2R,4R)-2-(benzo[d]thiazol-5-yl)-4-methylpiperidin-1-yl)methanone] was run?
A: 322 nM

Q: What about the Selectivity [1] of the same compound?
A: >31

Q: What about the IC50 [2] of the same compound?
A: > 10000 nM

Q: Which IC50 [1] does the source give for `C[C@H]1CC[C@H](c2ccc3scnc3c2)N(C(=O)c2ccc3nc(N)c4cncn4c3c2)C1` [Example 227, (4-aminoimidazo[1,5-a]quinoxalin-8-yl)((2R,5S)-2-(benzo[d]thiazol-5-yl)-5-methylpiperidin-1-yl)methanone] here?
A: 12 nM

Q: What about the Selectivity [1] of the same compound?
A: 283

Q: What about the IC50 [2] of the same compound?
A: 3440 nM

Q: For `Cc1cc2nc(N)c3cncn3c2cc1C(=O)N1C[C@@H](C)CC[C@@H]1c1ccc2scnc2c1` [Example 228, (4-amino-7-methylimidazo[1,5-a]quinoxalin-8-yl)((2R,5S)-2-(benzo[d]thiazol-5-yl)-5-methylpiperidin-1-yl)methanone], which IC50 [1] is on record?
A: 102 nM

Q: And the Selectivity [1]?
A: 52.1

Q: And the IC50 [2]?
A: 5320 nM

Q: How did the IC50 [1] turn out when `Cc1ncc2c(N)nc3ccc(C(=O)N(c4cnn(C)c4)[C@@H]4COc5cc(C(F)(F)F)ccc54)cc3n12` [Example 229, (S)-4-amino-1-methyl-N-(1-methyl-1H-pyrazol-4-yl)-N-(6-(trifluoromethyl)-2,3-dihydrobenzofuran-3-yl)imidazo[1,5-a]quinoxaline-8-carboxamide] was run?
A: 16 nM

Q: And the Selectivity [1]?
A: 58.4

Q: What about the IC50 [2] of the same compound?
A: 934 nM

Q: Which IC50 [1] does the source give for `Cc1cc2nc(N)c3cncn3c2cc1C(=O)N(C)Cc1ccc(C(F)(F)F)cn1` [Example 230, 4-amino-N,7-dimethyl-N-((5-(trifluoromethyl)pyridin-2-yl)methyl)imidazo[1,5-a]quinoxaline-8-carboxamide] here?
A: 108 nM

Q: And the Selectivity [1]?
A: 70.1

Q: What about the IC50 [2] of the same compound?
A: 7570 nM

Q: Which results are given for `Cc1cc2nc(N)c3cnc(C)n3c2cc1C(=O)N(C)Cc1ccc(C(F)(F)F)cn1` [Example 231, 4-amino-N,1,7-trimethyl-N-((5-(trifluoromethyl)pyridin-2-yl)methyl)imidazo[1,5-a]quinoxaline-8-carboxamide]?
A: IC50 [1]: 174 nM; Selectivity [1]: >57.5; IC50 [2]: > 10000 nM

Q: Which IC50 [1] does the source give for `Cn1cc(N(C(=O)c2cc3c(cc2F)nc(N)c2cccn23)[C@@H]2COc3cc(C(F)(F)F)ccc32)cn1` [Example 233, (S)-4-amino-7-fluoro-N-(1-methyl-1H-pyrazol-4-yl)-N-(6-(trifluoromethyl)-2,3-dihydrobenzofuran-3-yl)pyrrolo[1,2-a]quinoxaline-8-carboxamide] here?
A: 17 nM

Q: What about the Selectivity [1] of the same compound?
A: 33.2

Q: And the IC50 [2]?
A: 564 nM
